The values below are quoted from earlier work in patent US20050042177A1, “Novel compositions of sildenafil free base” (Elan Pharma International Ltd., priority 2003, published 2005).

In one data set the test system is PDE6. The settings on record: PDE5 versus PDE6.
Where [1] appears, read: 100 mg oral dose, healthy adult males.

A word on the Tmax: it is the time from dosing to the highest level. Turning to `CCCc1nn(C)c2c(=O)[nH]c(-c3cc(S(=O)(=O)N4CCN(C)CC4)ccc3OCC)nc12.O=C(O)CC(O)(CC(=O)O)C(=O)O` [Sildenafil citrate, 1-[[3-(6,7-dihydro-1-methyl-7-oxo-3-propyl-1H-pyrazolo[4,3-d]pyrimidin-5-yl)-4-ethoxyphenyl]sulfonyl]-4 methylpiperazine citrate], under setting [1], the Tmax is 1 h, the “mean Cmax” value was 0.44 µg/mL and the t1/2 result is recorded as “about 4 hours”. Further, the absolute bioavailability (in vivo) is 40%.

Consider `CCCc1nn(C)c2c(=O)[nH]c(-c3cc(S(=O)(=O)N4CCN(C)CC4)ccc3OCC)nc12` [Sildenafil, 1-[[3-(6,7-dihydro-1-methyl-7-oxo-3-propyl-1H-pyrazolo[4,3-d]pyrimidin-5-yl)-4-ethoxyphenyl]sulfonyl]-4-methylpiperazine], for which, in the data set with PDE6, the “potency for PDE5 as compared to PDE6” value is “approximately 10 fold”.
